Assay: excess molar enthalpy (molar enthalpy of mixing); xn = mol fraction of the nth substance listed
Conditions: Liquid, Flow calorimetry

CN(C)CCO [2-(N,N-dimethylamino)ethanol] + CCO
excess molar enthalpy [kcal/mol]
Conditions	298.2 K	313.2 K	328.2 K
100 kPa, x1 = 0.0717	-0.035	-0.0369	–
100 kPa, x1 = 0.1392	-0.0579	-0.0621	–
100 kPa, x1 = 0.2028	–	-0.0786	–
100 kPa, x1 = 0.2034	–	–	-0.0744
100 kPa, x1 = 0.2054	-0.0763	–	–
100 kPa, x1 = 0.2654	–	–	-0.0854
100 kPa, x1 = 0.2665	-0.0874	-0.0911	–
100 kPa, x1 = 0.3253	–	–	-0.092
100 kPa, x1 = 0.3264	-0.0938	-0.0978	–
100 kPa, x1 = 0.3839	–	–	-0.0953
100 kPa, x1 = 0.3845	-0.0975	-0.101	–
100 kPa, x1 = 0.4385	–	–	-0.0962
100 kPa, x1 = 0.4399	-0.0983	-0.102	–
100 kPa, x1 = 0.4916	-0.0967	-0.1	–
100 kPa, x1 = 0.4924	–	–	-0.094
100 kPa, x1 = 0.5427	-0.0933	-0.0963	-0.0913
100 kPa, x1 = 0.591	–	–	-0.0857
100 kPa, x1 = 0.5925	-0.0886	-0.0911	–
100 kPa, x1 = 0.6393	–	–	-0.0799
100 kPa, x1 = 0.6409	-0.0822	-0.0846	–
100 kPa, x1 = 0.683	–	-0.0777	–
100 kPa, x1 = 0.6848	–	–	-0.0727
100 kPa, x1 = 0.6874	-0.0745	–	–
100 kPa, x1 = 0.727	–	-0.0695	–
100 kPa, x1 = 0.7296	–	–	-0.065
100 kPa, x1 = 0.7314	-0.0665	–	–
100 kPa, x1 = 0.7727	-0.0592	-0.0602	–
100 kPa, x1 = 0.8108	–	-0.0513	–
100 kPa, x1 = 0.8157	-0.0487	–	–
100 kPa, x1 = 0.8553	-0.0402	-0.0402	–
100 kPa, x1 = 0.8911	-0.031	-0.0309	–
100 kPa, x1 = 0.9281	-0.0203	-0.0209	–
100 kPa, x1 = 0.9663	-0.00889	-0.00985	–
10000 kPa, x1 = 0.0699	–	-0.037	–
10000 kPa, x1 = 0.0721	-0.0371	–	–
10000 kPa, x1 = 0.1399	-0.0613	-0.0633	–
10000 kPa, x1 = 0.2039	-0.0767	-0.0802	–
10000 kPa, x1 = 0.2044	–	–	-0.0752
10000 kPa, x1 = 0.265	–	-0.0917	–
10000 kPa, x1 = 0.2667	–	–	-0.086
10000 kPa, x1 = 0.2678	-0.0878	–	–
10000 kPa, x1 = 0.3249	–	-0.0989	–
10000 kPa, x1 = 0.3267	–	–	-0.0926
10000 kPa, x1 = 0.3279	-0.0955	–	–
10000 kPa, x1 = 0.3829	-0.0988	-0.102	–
10000 kPa, x1 = 0.3835	–	–	-0.0962
10000 kPa, x1 = 0.4381	-0.0997	-0.103	-0.0965
10000 kPa, x1 = 0.4919	–	–	-0.0945
10000 kPa, x1 = 0.4933	-0.0979	-0.101	–
10000 kPa, x1 = 0.5421	–	–	-0.0909
10000 kPa, x1 = 0.5443	-0.0944	-0.0972	–
10000 kPa, x1 = 0.5902	–	-0.0923	–
10000 kPa, x1 = 0.5926	–	–	-0.0858
10000 kPa, x1 = 0.5941	-0.0891	–	–
10000 kPa, x1 = 0.6383	-0.0835	-0.0856	-0.0795
10000 kPa, x1 = 0.6845	-0.0762	-0.0782	–
10000 kPa, x1 = 0.7283	-0.0684	-0.0701	–
10000 kPa, x1 = 0.7739	-0.0591	-0.0605	–
10000 kPa, x1 = 0.8118	-0.0505	-0.0517	–
10000 kPa, x1 = 0.8511	-0.0409	-0.042	–
10000 kPa, x1 = 0.8917	-0.0305	-0.0311	–
10000 kPa, x1 = 0.9285	-0.0202	-0.021	–
10000 kPa, x1 = 0.9665	-0.00903	-0.00989	–

Reference: the NIST ThermoML archive (doi:10.1021/je800334m)
